Test results: patent US11344625B2, “Compositions having antifungal activity” (WAKO FILTER TECHNOLOGY Co., LTD., priority 2015, dated 2022)
Converted amounts (≈) assume the structure as drawn. Like-named read-outs stand apart in the source and are kept apart here.

Experiments:
[1] = tested on: Candida albicans TIMM 1768; experiment: Inhibition test for Candida mycelial growth (crystal violet, checkerboard for combinations); type: cell-based; conditions: for IC (at a 70% growth inhibitory concentration): checkerboard; for IC 70 (70% growth inhibitory concentration): alone, Candida mycelial growth; for improvement effect in the anticandidal activity against Candida mycelial growth: test reagent alone, concentration series
Method: A clinical isolate, Candida albicans TIMM 1768, held by the Teikyo University Medical Mycology Research Center was used as the Candida. This Candida was cultured for 20 hours at 37° C. on a Sabouraud Dextrose Agar culture plate. The multiplied bacterial cells were recovered, and then suspended in sterilized water so as to form Candida solutions whose bacterial count was adjusted to 5×10^3 cells/ml. Each sample was dissolved in advance in DMSO (dimethyl sulfoxide) so as to match the final concentration, and was then added to a 1/3 RPMI-1640 culture medium containing 2% calf serum so as to form sample solutions. 100 μL of both the sample solution (having a DSMO concentration in the culture medium of 0.5%) and the Candida bacterial solution were then placed respectively in each well of a 96-hole microplate (manufactured by Sumitomo Bakelite, Tokyo), and these were then cultured for three hours at 37° C. in a 5% carbon dioxide gas atmosphere. After three hours, the solutions in each well were discarded and the wells were cleaned. Subsequently, 200 μL of 1/3 RPMI-1640 was newly added to each well, and culturing was performed for 16 hours at 37° C. in a presence of 5% carbon dioxide gas. Once this culturing had ended, the solutions in each well were removed by suction, and the wells were washed using physiological saline. 200 μL of 70% ethanol was then injected so as to sterilize the Candida. After the ethanol had been removed, and the wells washed with tap water, 100 μL of a dye solution (i.e., a 0.1 M phosphate buffer containing 0.01% of dissolved crystal violet solution) was injected and left standing for 15 minutes. As a result, the Candida mycelia adhering to the surface of the wells were dyed.
After the wells were then washed with tap water so as to remove excess dye solution, 150 μL of […] containing 0.04 NHCL, and 50 μL of a 0.25% sodium dodecyl sulfate solution were then injected so as to free the coloring adhering to the bacterial cells. After the coloring had been freed, the plate was set in a multiscan photometer (i.e., a Multiskan FC, manufactured by Thermo Fisher Scientific Inc.), and the OD at 620 nm was measured in each well. The growth inhibition rate was then determined using the following formula. Growth inhibition rate (%)=(1−sample OD/subject OD)×100
The anticandidal activity synergistic effect provided by the combined use was evaluated using a checkerboard method. […] The experiment conditions and the measurement method and the like were the same as those employed for the mycelial growth test (i.e., Example 1).
The anticandidal activity synergistic effect obtained from a combined use was evaluated using a checkerboard method in the same way as in Example 2. […] The experiment conditions and the measurement method and the like were the same as those employed for the mycelial growth test (i.e., Example 1).
The anticandidal activity effect obtained from each test reagent was evaluated using a checkerboard method in the same way as in Example 2. […] The experiment conditions and the measurement method and the like were the same as those employed for the mycelial growth test (i.e., Example 1).

[2] = tested on: Trichophyton mentagrophytes TIMM 2789; experiment: In vitro inhibition test for Trichophyton (pour-plate, agar); type: cell-based; conditions: for MIC: Trichophyton mentagrophytes, read-out: MIC (minimum inhibitory concentration)
[3] = tested on: Trichophyton mentagrophytes TIMM 2789; experiment: as above; type: cell-based; conditions: cultured at 28° C.
Method: A clinical isolate, Trichophyton mentagrophytes TIMM 2789, held by the Teikyo University Medical Mycology Research Center was used as the Trichophyton. For the preculture process, this Trichophyton was extracted from low-temperature silica stock one week prior to the day of the test, and was cultured on a Sabouraud Dextrose Agar culture plate containing 50 μg/ml of chloramphenicol and 500 μg/ml of cycloheximide (such that these components were diluted to 1/10). This culturing was performed for one week at 28° C., and the bacteria were collected and used on the day of the test. The setting of the Trichophyton bacterial count was achieved by transferring the collected bacteria using a pour-plate method to a culture medium such that the final concentration was 10^3 cells/ml. In addition, the respective test samples were also transferred to a culture medium using a pour-plate method such that the final concentrations thereof were set to those shown in the table below. […] In the preparation, 1 ml of each test sample solution and 24 ml of RPMI-1640 culture medium were blended together, and prepared in a sterilized plastic Petri dish. The Trichophyton inoculation culture medium that was prepared in this manner was then cultured at 28° C. for four days, and the growth inhibitory effect of the mycelia after this culturing was observed and the properties thereof determined. The determinations were made both visually, and in the case of turbidity being present, by comparing the growth condition of the mycelia with a control (containing no test sample additives) via photomicrograph (at magnification ×40).
Results for the negativity and positivity of the bacteria obtained from each test sample are shown below in Table 6. Note that if the mycelial growth rate of the control is taken as 100%, then when the mycelial growth rate in the test sample is 0%, this is determined to be [−], while if the mycelial growth rate in the test sample is 1 to 20%, this is determined to be [+], and if the mycelial growth rate in the test sample is 21 to 90%, this is determined to be […]. Note that FIG. 15 and FIG. 16 are photographs showing states 7 days after colony formation of the Trichophyton in each test sample.

[4] = tested on: Malassezia pachydermatis; experiment: Anti-Malassezia fungal activity, agar dilution method; type: cell-based; conditions: for Determination (mycelial growth rate taking control as 100): 7 days at 32° C.
Method: 100 μL lots of the test bacterial solution adjusted to McFarland 1.0 were coated over this Agar plate and were cultured for seven days at 32° C. Thereafter, the growth rate of the bacteria thereon were compared with a control (i.e., an MLNA culture medium containing no test additives) and their properties were determined. […] Note that if the mycelial growth rate of the control is taken as 100%, then when the mycelial growth rate in the test sample is 0%, this is determined to be [−], while if the mycelial growth rate in the test sample is 1 to 20%, this is determined to be [+], and if the mycelial growth rate in the test sample is 21 to 90%, this is determined to be […].

[5] = tested on: Candida albicans TIMM 1768; experiment: Oral candidiasis model in mice; type: in vivo, ICR strain mice; conditions: day 2
Method: Using ICR strain mice (males, 6 weeks old, Charles River Laboratories, Japan) as the experimental animals, these mice were subcutaneously injected with 100 mg/kg of prednisolone as an immunosuppressant on the day prior to the candidiasis inoculation. Additionally, tap water containing 15 mg/ml of chlortetracycline hydrochloride was made freely available starting from that same day. On the day of the innoculation, in order to keep the mice in a resting state, 14.4 mg/kg of chlorpromazine hydrochloride (manufactured by Wako Pure Chemical Industries, Ltd.) was intramuscularly administered in advance. The bacterial strain and culturing method that were used were the same as in the Examples as far as the previous paragraph, and the multiplied bacterial cells were suspended in an RPMI-1640 culture medium containing 2% calf serum so as to form a bacterial solution whose bacterial count was adjusted to 2×10^8 cells/ml. […] Two days after the inoculation the mouse was euthanized, and the tongue symptom score was evaluated in accordance with a reference. […] A fixed quantity of this was then coated onto a Candida GS agar plate, and was cultured at 37° C. for 20 hours. The number of colonies appearing after this time was then measured. The number of viable Candida bacteria CFU (colony forming units) recovered from the relevant individuals was then calculated from the number of colonies.

[6] = LYZOX used in combination with terpinen-4-ol
[7] = used in combination with decanoic acid
[8] = used in combination with terpinen-4-ol

| Compound | IC 70 (70% growth inhibitory concentration) [1] [µg/mL] | Determination (mycelial growth rate taking control as 100) ([3]; 1 mg/ml) | Determination (mycelial growth rate taking control as 100) ([4]; 0.1 mg/ml) | Determination (mycelial growth rate taking control as 100) ([4]; 1 mg/ml) | IC (at a 70% growth inhibitory concentration) [1, 6] [µg/mL] | improvement effect in the anticandidal activity against Candida mycelial growth [1] | improvement effect in the anticandidal activity from combined usage against Candida mycelial growth [1, 7] | improvement effect in the anticandidal activity from combined usage against Candida mycelial growth [1, 8] | Determination (mycelial growth rate taking control as 100) ([3]; 2.5 mg/ml) | Determination (mycelial growth rate taking control as 100) ([3]; 5 mg/ml) | Determination (mycelial growth rate taking control as 100) ([4]; 0.05 mg/ml) | Determination (mycelial growth rate taking control as 100) ([4]; 0.5 mg/ml) | other results |
| --- | --- | --- | --- | --- | --- | --- | --- | --- | --- | --- | --- | --- | --- |
| CCCCCCCCCC(=O)O [Decanoic acid, decanoic acid] | 480 | ++ (21 to 90%) | +++ (91 to 100%) | +++ (91 to 100%) | – | – | – | – | – | – | – | – | IC (at a 70% growth inhibitory concentration) ([1]; LYZOX used in combination with capric acid (decanoic acid)): 25 µg/mL; MIC ([2]; TIMM2789, LYZOX and decanoic acid used in combination): 200 µg/mL; MIC ([2]; TIMM2789, used alone): 1500 µg/mL (≈ 8.71 mM); Determination (mycelial growth rate taking control as 100) ([3]; 0.8 mg/ml): +++ (91 to 100%); Determination (mycelial growth rate taking control as 100) ([3]; 0.9 mg/ml): +++ (91 to 100%); Determination (mycelial growth rate taking control as 100) ([3]; 1.5 mg/ml): − (0%); Determination (mycelial growth rate taking control as 100) ([4]; 0.2 mg/ml): +++ (91 to 100%); Determination (mycelial growth rate taking control as 100) ([4]; 2 mg/ml): + (1 to 20%) |
| CC1=CCC(O)(C(C)C)CC1 (stereo not shown) [Terpinen-4-ol, terpinen-4-ol] | 1900 | – | – | – | 280 | – | – | – | – | – | – | – | viable bacteria count recovered from the oral cavity ([5]; T 10 mg/ml on tongue dorsum 3, 24, 27 h after inoculation): reduction in the viable bacterial count |
| LYZOX: complex formed by bonding lysozyme to chitosan (14000 Da) via a Maillard reaction; LYZOX is a registered trademark | 193 | +++ (91 to 100%) | ++ (21 to 90%) | − (0%) | 60 | improvement effect in the anticandidal activity against Candida mycelial growth was visible | remarkable improvement effect | remarkable improvement effect | ++ (21 to 90%) | ++ (21 to 90%) | +++ (91 to 100%) | − (0%) | Candida growth rate ([1]; 250 μg/ml): 0.9%; MIC (minimum inhibitory concentration) ([2]; LYZOX and decanoic acid used in combination): 0.1 mg/mL; MIC (minimum inhibitory concentration) ([2]; used alone): 10 mg/mL; Determination (mycelial growth rate taking control as 100) ([3]; 10 mg/ml): − (0%); anti-Malassezia fungal activity against Malassezia fungi ([4]; summary of agar dilution and disk experiments): exhibited anti-Malassezia fungal activity; tongue symptom score ([5]; L 20 mg/ml on tongue dorsum 3, 24, 27 h after inoculation): remarkable improvement effect |
| Lysozyme: simple lysozyme, unbonded component of the complex | – | – | – | – | – | no improvement effect | no improvement effect | no improvement effect | +++ (91 to 100%) | ++ (21 to 90%) | +++ (91 to 100%) | +++ (91 to 100%) | – |
